The values below come from patent publication US11110158B2, “Prostate-associated antigens and vaccine-based immunotherapy regimens” (Pfizer Inc., priority 2012, dated 2021).

One assay concerns 293 cells. The experiment in a line: Expression of PSMA constructs in transfected 293 cells by FACS. The format is cell-based. To be noted: 293 cells transfected with PJV7563 vector, stained with mouse anti-PSMA antibody three days later; cell surface expression. As for the experimental part: The expression of the PSMA cytosolic, secreted, and modified antigens was determined by FACS. Mammalian 293 cells were transfected with the PJV7563 PMED vectors encoding the various immunogenic PSMA polypeptides. Three days later, the 293 cells were stained with mouse anti-PSMA antibody, followed with a fluorescent conjugated (FITC) rat anti-mouse secondary antibody.

The test system of the next assay is native PSMA protein. The experiment in a line: Sandwich ELISA, anti-PSMA antibody titers in serum of vaccinated Pasteur mice. It counts as in vivo, mouse. The method, then: The standard sandwich ELISA assay was done using an automated Biotek system. The plates were coated with 25 μl of native PSMA protein at a 1.0 μg/ml in PBS overnight, the plates were washed and blocked with 35 μl/well of 5% FBS 1×PBS-T 0.05% and incubated for 1 hour at RT on a shaker at 600 RPM. The blocking media was decanted and serial dilute vaccinated mouse serum with half log dilutions in 5% FBS 1×PBS-T 0.05% starting at 1:100 or 1:500 were made and 25μ samples of the diluted serum were added to each well of the 96 well plates and incubated for 1 hour at RT on a shaker at 600 RPM. The plates were washed 3 times with 75 ul/well in 1×PBS-T 0.05% using the Biotek ELx405, and 25 μl/well of 1:30,000 diluted anti-mouse IgG HRP (AbCam cat #ab20043) secondary antibody (diluted in 1×PBS-T 0.05%) was added to each well of the 96 well plates and incubated for 1 hour at RT on a shaker at 600 RPM. Plates were washed 5× with 75 ul/well in 1×PBS-T 0.05% using the Biotek EIx405. TMB Substrate was diluted at 1:10 and 25 μl was added to each well and incubated at RT for 30 minutes. The reaction was stopped by adding 12.5 μl/well of 1M H2SO4. Plates were read using the Spectramax Plus at 450 nm wavelength. Data were reported as titers and these could be reported as first positive (average and both values above 5% FBS PBS+3 time Standard Deviation) and/or as calculated titers at OD of 0.5 or 1.0. Serum from irrelevant vaccinated mice were used as negative controls.
Eight- to 10-week old Pasteur mice were immunized using PMED method with the various plasmid DNAs expressing shuffled PSMA modified antigens in a prime/boost/boost regimen, two weeks apart between each vaccination as described in Example 1F. Antigen specific T and B cell responses were measured 7 days after the last immunization in an interferon-gamma (IFNγ) ELISPOT assay and sandwich ELISA respectively.

The test system of the next assay is rhesus PSMA. The experiment in a line: IFNγ ELISPOT of PBMCs, rhesus PSMA adenovirus with subcutaneous anti-CTLA-4 in Indian rhesus macaques. The format is in vivo. To be noted: versus vaccine alone. The method, then:
Five groups of male Indian rhesus macaques, seven (#1 to 7) per each test group, were immunized with an adenovirus encoding a rhesus PSMA modified polypeptide delivered by bilateral intramuscular injections (2×5e10 V.P.). Immediately following the adenovirus injections, group 1 received vehicle, and groups 2 to 4 received bilateral subcutaneous injections of anti-CTLA-4 antibody (CP-675, 206) at doses 2×25 mg, 2×16.7 mg and 2×8.4 mg respectively in proximity to the vaccine draining lymph node.
Nine days after the immunization, peripheral blood mononuclear cells (PBMCs) were isolated from each animal and were subjected to an IFNγ ELISPOT assay to measure the rhesus PSMA specific T cell responses. Briefly, 4e5 PBMCs from individual animals were plated per well with pools of rhesus PSMA specific peptides (P1, P2, P3 or R1+R2 defined in table 24A) or nonspecific control peptides (human HER2 peptide pool) each at 2 ug/ml in IFNγ ELISPOT plates. The plates were incubated for 16 hrs at 37° C. and 5% CO2 and washed and developed after incubation as per manufacturer's instruction. The number of IFNγ spot forming cells (SFC) were counted by CTL reader. Each condition was performed in duplicates. The average of the duplicates from the background adjusted SFC of the rhesus PSMA specific peptide pools was normalized to the response in 1e6 PBMCs.
A capture antibody specific to IFNγ […]BD Bioscience, #51-2525kc) is coated onto a polyvinylidene fluoride (PVDF) membrane in a microplate overnight at 4° C. The plate is blocked with serum/protein to prevent nonspecific binding to the antibody. After blocking, effector cells (such as splenocytes isolated from immunized mice or PBMCs isolated from rhesus macaques) and targets (such as PSMA peptides from peptide library, target cells pulsed with antigen specific peptides or tumor cells expressing the relevant antigens) are added to the wells and incubated overnight at 37° C. in a 5% CO2 incubator. Cytokine secreted by effector cells are captured by the coating antibody on the surface of the PVDF membrane. […]

Regarding “PSMA modified: membrane-bound polypeptide of amino acids 15-750 of human PSMA, SEQ ID NO: 9; tested as DNA construct”, the “Average mean fluorescent intensity” value in the assay on 293 cells came to 12270. Besides, the “ELISA (OD = 1) Average (+/−SD)” value in the assay on native PSMA protein (Table 3, anti-PSMA antibody titer calculated at OD of 1, Pasteur mice) is 1067 (518). In addition, the “# of positive” value in the assay with native PSMA protein (Table 3, mice with anti-PSMA antibody response by ELISA / N) was 4/4; in the assay on native PSMA protein (Table 10, mice with anti-PSMA antibody response by ELISA / mice tested), 7/7. For the same substance, in the assay on native PSMA protein (Table 10, anti-PSMA antibody titer calculated at OD of 0.5, Pasteur mice), the “ELISA (OD = 0.5)” value is given as 1159 (802).
Take “Tremelimumab: fully human IgG2 anti-CTLA-4 monoclonal antibody, CAS 745013-59-6, SEQ ID NOs:42 and 43”: the “rhesus PSMA specific IFNγ T cell response” value in the assay with rhesus PSMA (group 2: 50 mg (2×25 mg) subcutaneous near vaccine draining lymph node, P=0.001) is “significantly enhanced”; in the assay with rhesus PSMA (group 3: 33.4 mg subcutaneous, P=0.004) it was “significantly enhanced”; in the assay on rhesus PSMA (group 4: 16.7 mg subcutaneous, P=0.05), “significantly enhanced”.
